# Experimental data reported in PMC7301841, “LuxR Solos in the Plant Endophyte Kosakonia sp. Strain KO348” (Applied and Environmental Microbiology, 2020).
# Molecular target: T1, LoxR (Kosakonia pseudosacchari, UniProt A0ABX4IX59)
# T1 construct: gene BK796_01250; full-length, His6-tagged (pET22b NdeI/XhoI, tag at C-terminus by vector), E. coli BL21(DE3) pLysS; forward primer encodes N-terminus MQDTEFFT
# Test: co-purification of complex (Ni-NTA, gel filtration), LC-MS/MS detection of coeluting AHL; ligand-dependent solubility
# Format: binding
# Details: expressed with 10 uM AHL, 16°C; pH 8.5
# T1 sequence (A0ABX4IX59 entry or part of it): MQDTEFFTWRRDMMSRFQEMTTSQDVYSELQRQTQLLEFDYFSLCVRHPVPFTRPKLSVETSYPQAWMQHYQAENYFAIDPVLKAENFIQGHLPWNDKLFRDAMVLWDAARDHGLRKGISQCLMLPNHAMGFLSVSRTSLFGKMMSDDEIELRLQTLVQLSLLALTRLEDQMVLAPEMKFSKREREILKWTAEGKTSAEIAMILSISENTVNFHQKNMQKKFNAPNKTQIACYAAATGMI
row,SMILES,"co-purification of complex (Ni-NTA, gel filtration), LC-MS/MS detection of coelu"
1,CCCCCC(=O)N[C@H]1CCOC1=O [C6-HSL],It was therefore concluded that AHLs solubilize and bind to LoxR.
2,CCCCCCCCCC(=O)CC(=O)N[C@H]1CCOC1=O [OC12-HSL],OC12-HSL was also able to solubilize LoxR (data not shown)

# Molecular target: T1, LoxR
# Test: ligand-dependent solubility on expression in E. coli (total extract vs soluble fraction)
# Format: cell-based
# Details: expressed in E. coli in presence of AHL, 0.2 mM IPTG, 37°C overnight
row,SMILES,ligand-dependent solubility on expression in E. coli (total extract vs soluble f)
1,CCCCCCCCCC(=O)N[C@H]1CCOC1=O [C10-HSL],LoxR was soluble when bound and insoluble when unbound to AHLs
2,CCCC(=O)CC(=O)N[C@H]1CCOC1=O [OC6-HSL],LoxR was soluble when bound and insoluble when unbound to AHLs
3,CCCCCC(=O)CC(=O)N[C@H]1CCOC1=O [OC8-HSL],LoxR was soluble when bound and insoluble when unbound to AHLs
4,CCCC(O)CC(=O)N[C@H]1CCOC1=O (stereo partly drawn) [OHC6-HSL],LoxR was soluble when bound and insoluble when unbound to AHLs
